In patent US12465594B2 (Brown University, priority 2018, dated 2025):

Experiments:
[1] = system: NMDAR EPSCs in VTA dopamine neurons; assay: Electrophysiology: CRF potentiation of NMDAR EPSCs in VTA slices; assay type: cell-based, mouse; conditions: 30 μM compound, CRF 1 μM, VTA-DA neurons, acute brain slices
Excerpt: Male and female mice (n=44; 6-10 weeks) were anesthetized with Euthasol (Butler-Schein). Brains were rapidly removed and placed in ice-cold NMDG-based artificial Cerebrospinal Fluid (aCSF) cutting solution containing (in mM): 92 NMDG, 20 HEPES, 25 glucose, 30 NaHCO3, 2.5 KCl, 1.2 NaPO4 saturated with 95% O2/5% CO2 with an osmolarity of 305-308 mOsm (Advanced Cell Diagnostics). The brain was cut in ice-cold NMDG solution to obtain horizontal VTA slices, 230 μm thick, using a Leica vibratome (Leica VT1200) and slices were incubated in warm NMDG solution (34° C.) for <5 minutes before being placed in a modified aCSF holding solution (in mM): 92 NaCl, 20 HEPES, 25 glucose, 30 NaHCO3, 2.5 KCl, 1.2 NaPO4 (305-308 mOsm). Slices were incubated at room temperature for at least 1 hour before recording.
Whole-cell patch clamp of the lateral VTA was performed under the guidance of IR-DIC optics on an Olympus BX5iWI microscope. Cells were patched with 1.8-3 MO resistance glass microelectrodes containing the following internal solution (in mM): 117 cesium methanesulfonate, 20 HEPES, 0.4 EGTA, 2.8 NaCl, 5 TEA-CI, 4 Mg-ATP, 0.4 Na-GTP, and 5 QX-314 (280-285 mOsm). Dopamine cells were identified by the following criteria: 1) large multipolar soma, 30-40 μm in diameter, 2) tonic firing of <4 Hz when cell attached, 3) large […] with negative voltage step (identified immediately following break in). […] Series resistance was monitored online. […]
For electrophysiology measures, excitatory post-synaptic currents (EPSCs) were normalized to 7 minute of averaged baseline responses, prior to drug application. […] Results are reported as M±SEM a in bar graphs comparing drug to vehicle and analyzed by a one-way ANOVA and post-hoc comparisons to vehicle were performed using a Bonferroni multiple comparisons correction measures (**p<0.01). […]
NMDAR excitatory postsynaptic currents (EPSCs) were recorded from VTA dopamine (DA) neurons in acute brain slices from male and female mice. […]

5-HT1A = target: T1, 5-HT1A (Homo sapiens, UniProt P08908); assay: PDSP binding assay; conditions: 10 μM, quadruplicate, cloned target
T1 construct: NIMH Psychoactive Drug Screening Program (PDSP)
T1 sequence (P08908 whole entry, species assumed): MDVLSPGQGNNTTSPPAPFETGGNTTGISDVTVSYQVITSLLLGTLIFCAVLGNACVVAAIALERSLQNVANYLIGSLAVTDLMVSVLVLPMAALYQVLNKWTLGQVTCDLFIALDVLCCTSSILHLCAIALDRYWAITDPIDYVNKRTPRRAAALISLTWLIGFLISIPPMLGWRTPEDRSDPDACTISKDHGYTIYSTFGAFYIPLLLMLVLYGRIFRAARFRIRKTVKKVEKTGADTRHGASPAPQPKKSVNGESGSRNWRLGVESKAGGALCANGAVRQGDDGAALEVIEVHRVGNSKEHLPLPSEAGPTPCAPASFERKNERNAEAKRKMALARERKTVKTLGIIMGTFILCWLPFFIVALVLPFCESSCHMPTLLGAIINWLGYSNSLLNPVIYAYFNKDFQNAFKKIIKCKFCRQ

5-HT1D = target: T2, 5-HT1D (Homo sapiens, UniProt P28221); assay: PDSP binding assay; conditions: 10 μM, quadruplicate, cloned target
T2 construct: NIMH Psychoactive Drug Screening Program (PDSP)

5-HT2C = target: T3, 5-HT2C (Homo sapiens, UniProt P28335); assay: PDSP binding assay; conditions: 10 μM, quadruplicate, cloned target
T3 construct: NIMH Psychoactive Drug Screening Program (PDSP)

5-HT3 = target: T4, 5-HT3 (Homo sapiens, UniProt P46098); assay: PDSP binding assay; conditions: 10 μM, quadruplicate, cloned target
T4 construct: NIMH Psychoactive Drug Screening Program (PDSP)

5-HT5A = target: T5, 5-HT5A (Homo sapiens, UniProt P47898); assay: PDSP binding assay; conditions: 10 μM, quadruplicate, cloned target
T5 construct: NIMH Psychoactive Drug Screening Program (PDSP)

5-HT7 = target: T6, 5-HT7 (Homo sapiens, UniProt P34969); assay: PDSP binding assay; conditions: 10 μM, quadruplicate, cloned target
T6 construct: NIMH Psychoactive Drug Screening Program (PDSP)

D2 = target: T7, D2 (Homo sapiens, UniProt P14416); assay: PDSP binding assay; conditions: 10 μM, quadruplicate, cloned target
T7 construct: NIMH Psychoactive Drug Screening Program (PDSP)
T7 sequence (P14416 whole entry): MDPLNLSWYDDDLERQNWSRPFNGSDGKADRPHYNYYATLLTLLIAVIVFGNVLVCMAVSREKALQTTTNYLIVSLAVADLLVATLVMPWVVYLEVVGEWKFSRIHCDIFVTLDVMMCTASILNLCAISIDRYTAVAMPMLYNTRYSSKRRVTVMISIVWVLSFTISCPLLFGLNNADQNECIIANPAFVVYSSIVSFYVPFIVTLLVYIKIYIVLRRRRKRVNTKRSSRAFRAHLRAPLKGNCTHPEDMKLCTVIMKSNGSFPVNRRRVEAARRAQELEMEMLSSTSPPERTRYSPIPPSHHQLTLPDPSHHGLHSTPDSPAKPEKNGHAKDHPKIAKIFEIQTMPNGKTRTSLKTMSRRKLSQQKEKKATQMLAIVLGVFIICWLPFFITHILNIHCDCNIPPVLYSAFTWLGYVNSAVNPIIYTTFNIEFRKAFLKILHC

D3 = D3 (Homo sapiens, UniProt P35462); assay: PDSP binding assay; conditions: 10 μM, quadruplicate, cloned target
D4 = D4 (Homo sapiens, UniProt P21917); assay: PDSP binding assay; conditions: 10 μM, quadruplicate, cloned target
MOR = MOR (Homo sapiens, UniProt P35372); assay: PDSP binding assay; conditions: 10 μM, quadruplicate, cloned target
Sequence of MOR (P35372 whole entry): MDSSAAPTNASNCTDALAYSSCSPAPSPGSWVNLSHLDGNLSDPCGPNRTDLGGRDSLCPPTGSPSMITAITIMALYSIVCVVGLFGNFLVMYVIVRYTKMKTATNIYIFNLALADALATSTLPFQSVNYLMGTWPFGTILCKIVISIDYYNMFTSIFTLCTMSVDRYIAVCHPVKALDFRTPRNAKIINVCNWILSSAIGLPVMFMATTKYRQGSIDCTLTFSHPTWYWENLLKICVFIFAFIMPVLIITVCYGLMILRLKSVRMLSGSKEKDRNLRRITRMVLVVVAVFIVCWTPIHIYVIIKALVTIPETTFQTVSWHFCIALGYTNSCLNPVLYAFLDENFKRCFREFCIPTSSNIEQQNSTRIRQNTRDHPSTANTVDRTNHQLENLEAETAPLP

GABAA = assay: PDSP binding assay; conditions: 10 μM, quadruplicate, cloned target
H3 = H3 (Homo sapiens, UniProt Q9Y5N1); assay: PDSP binding assay; conditions: 10 μM, quadruplicate, cloned target
Alpha1A = Alpha1A (Homo sapiens, UniProt P35348); assay: PDSP binding assay; conditions: 10 μM, quadruplicate, cloned target
Sequence of Alpha1A (P35348 whole entry): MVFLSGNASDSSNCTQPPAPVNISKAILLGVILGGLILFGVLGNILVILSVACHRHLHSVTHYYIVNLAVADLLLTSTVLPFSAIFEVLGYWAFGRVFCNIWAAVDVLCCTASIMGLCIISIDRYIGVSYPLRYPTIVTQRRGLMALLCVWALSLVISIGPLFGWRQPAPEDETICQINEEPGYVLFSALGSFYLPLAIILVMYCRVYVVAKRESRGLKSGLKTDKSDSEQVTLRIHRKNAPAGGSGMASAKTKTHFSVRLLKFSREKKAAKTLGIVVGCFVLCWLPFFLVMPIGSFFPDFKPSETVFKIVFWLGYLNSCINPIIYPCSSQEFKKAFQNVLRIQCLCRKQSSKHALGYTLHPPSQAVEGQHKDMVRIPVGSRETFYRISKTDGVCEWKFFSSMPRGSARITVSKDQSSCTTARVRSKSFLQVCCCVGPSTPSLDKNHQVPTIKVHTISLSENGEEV

Alpha1B = Alpha1B (Homo sapiens, UniProt P35368); assay: PDSP binding assay; conditions: 10 μM, quadruplicate, cloned target
Sequence of Alpha1B (P35368 whole entry): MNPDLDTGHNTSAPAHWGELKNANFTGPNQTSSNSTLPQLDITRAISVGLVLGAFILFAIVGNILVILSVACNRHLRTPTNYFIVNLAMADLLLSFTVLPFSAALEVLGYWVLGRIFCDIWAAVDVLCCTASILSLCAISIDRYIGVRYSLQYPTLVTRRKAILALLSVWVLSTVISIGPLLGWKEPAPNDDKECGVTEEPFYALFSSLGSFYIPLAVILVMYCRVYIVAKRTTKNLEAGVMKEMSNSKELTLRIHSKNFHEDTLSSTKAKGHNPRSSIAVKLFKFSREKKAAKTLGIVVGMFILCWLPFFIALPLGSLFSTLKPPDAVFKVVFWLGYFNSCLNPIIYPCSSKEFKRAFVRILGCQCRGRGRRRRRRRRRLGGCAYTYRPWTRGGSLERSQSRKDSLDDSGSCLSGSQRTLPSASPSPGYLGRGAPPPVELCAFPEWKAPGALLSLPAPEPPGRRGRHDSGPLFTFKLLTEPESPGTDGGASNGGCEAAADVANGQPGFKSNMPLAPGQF

Alpha2A = Alpha2A (Homo sapiens, UniProt P08913); assay: PDSP binding assay; conditions: 10 μM, quadruplicate, cloned target
Sequence of Alpha2A (P08913 whole entry): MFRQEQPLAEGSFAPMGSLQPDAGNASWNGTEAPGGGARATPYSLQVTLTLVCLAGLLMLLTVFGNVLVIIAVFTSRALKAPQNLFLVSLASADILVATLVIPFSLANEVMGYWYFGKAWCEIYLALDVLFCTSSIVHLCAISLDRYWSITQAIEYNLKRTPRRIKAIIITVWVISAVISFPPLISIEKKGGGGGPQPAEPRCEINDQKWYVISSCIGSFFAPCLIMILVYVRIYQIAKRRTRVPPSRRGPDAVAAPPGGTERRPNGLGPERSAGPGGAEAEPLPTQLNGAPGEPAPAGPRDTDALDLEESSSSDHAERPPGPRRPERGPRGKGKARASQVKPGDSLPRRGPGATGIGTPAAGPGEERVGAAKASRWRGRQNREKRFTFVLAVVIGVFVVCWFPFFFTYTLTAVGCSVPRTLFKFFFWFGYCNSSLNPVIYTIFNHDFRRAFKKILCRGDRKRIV

Alpha2B = Alpha2B (Homo sapiens, UniProt P18089); assay: PDSP binding assay; conditions: 10 μM, quadruplicate, cloned target
Sequence of Alpha2B (P18089 whole entry): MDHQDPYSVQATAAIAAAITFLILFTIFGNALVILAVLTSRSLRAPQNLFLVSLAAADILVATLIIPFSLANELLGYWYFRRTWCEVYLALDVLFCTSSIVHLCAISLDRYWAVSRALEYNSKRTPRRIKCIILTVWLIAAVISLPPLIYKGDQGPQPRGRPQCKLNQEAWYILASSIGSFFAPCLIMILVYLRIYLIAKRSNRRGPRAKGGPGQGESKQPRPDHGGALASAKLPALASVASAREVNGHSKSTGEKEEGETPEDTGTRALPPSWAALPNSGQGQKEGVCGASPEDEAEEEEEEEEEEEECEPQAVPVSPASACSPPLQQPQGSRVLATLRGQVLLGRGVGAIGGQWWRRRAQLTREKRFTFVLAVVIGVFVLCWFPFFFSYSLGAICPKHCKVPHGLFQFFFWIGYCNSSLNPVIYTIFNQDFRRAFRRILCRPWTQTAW

Alpha2C = Alpha2C (Homo sapiens, UniProt P18825); assay: PDSP binding assay; conditions: 10 μM, quadruplicate, cloned target
Sequence of Alpha2C (P18825 whole entry): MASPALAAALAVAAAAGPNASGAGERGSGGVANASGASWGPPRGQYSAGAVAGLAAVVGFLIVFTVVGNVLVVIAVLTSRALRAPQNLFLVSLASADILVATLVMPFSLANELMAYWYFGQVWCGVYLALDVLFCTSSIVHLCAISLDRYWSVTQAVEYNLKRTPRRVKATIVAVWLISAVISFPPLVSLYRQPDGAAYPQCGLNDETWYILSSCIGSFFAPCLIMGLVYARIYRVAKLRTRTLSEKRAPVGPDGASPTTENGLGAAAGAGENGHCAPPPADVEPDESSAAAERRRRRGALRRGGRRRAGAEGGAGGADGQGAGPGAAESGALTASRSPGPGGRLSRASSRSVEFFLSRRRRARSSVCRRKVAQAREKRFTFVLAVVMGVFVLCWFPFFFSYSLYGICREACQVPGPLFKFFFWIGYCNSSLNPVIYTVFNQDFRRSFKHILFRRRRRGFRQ

Beta1 = Beta1 (Homo sapiens, UniProt P08588); assay: PDSP binding assay; conditions: 10 μM, quadruplicate, cloned target
Sequence of Beta1 (P08588 whole entry): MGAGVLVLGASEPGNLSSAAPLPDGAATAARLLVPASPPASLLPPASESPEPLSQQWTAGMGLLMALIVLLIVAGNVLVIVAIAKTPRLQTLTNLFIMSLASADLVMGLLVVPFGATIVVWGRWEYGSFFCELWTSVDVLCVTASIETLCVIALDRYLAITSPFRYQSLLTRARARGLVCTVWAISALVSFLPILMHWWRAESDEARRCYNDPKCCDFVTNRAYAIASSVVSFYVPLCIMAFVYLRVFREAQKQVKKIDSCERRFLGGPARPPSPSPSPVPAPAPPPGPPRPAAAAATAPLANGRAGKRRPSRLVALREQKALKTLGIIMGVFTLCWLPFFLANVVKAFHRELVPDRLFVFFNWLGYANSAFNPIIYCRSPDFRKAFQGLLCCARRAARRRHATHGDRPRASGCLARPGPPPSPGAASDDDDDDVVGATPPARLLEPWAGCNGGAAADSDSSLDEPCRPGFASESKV

Beta2 = Beta2 (Homo sapiens, UniProt P07550); assay: PDSP binding assay; conditions: 10 μM, quadruplicate, cloned target
M2 = M2 (Homo sapiens, UniProt P08172); assay: PDSP binding assay; conditions: 10 μM, quadruplicate, cloned target
Sequence of M2 (P08172 whole entry): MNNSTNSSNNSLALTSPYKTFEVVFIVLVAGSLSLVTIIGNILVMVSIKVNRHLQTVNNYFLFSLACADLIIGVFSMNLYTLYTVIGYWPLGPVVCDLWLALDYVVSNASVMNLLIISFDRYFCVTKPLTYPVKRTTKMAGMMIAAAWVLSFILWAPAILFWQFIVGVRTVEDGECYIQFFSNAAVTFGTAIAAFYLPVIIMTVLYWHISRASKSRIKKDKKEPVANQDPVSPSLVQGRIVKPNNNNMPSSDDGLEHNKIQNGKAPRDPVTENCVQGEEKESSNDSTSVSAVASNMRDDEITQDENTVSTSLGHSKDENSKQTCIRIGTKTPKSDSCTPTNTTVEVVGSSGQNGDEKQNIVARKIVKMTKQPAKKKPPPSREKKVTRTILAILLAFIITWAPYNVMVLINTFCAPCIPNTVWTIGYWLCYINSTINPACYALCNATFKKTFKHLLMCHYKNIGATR

M3 = M3 (Homo sapiens, UniProt P20309); assay: PDSP binding assay; conditions: 10 μM, quadruplicate, cloned target
Alpha1D = Alpha1D (Homo sapiens, UniProt P25100); assay: PDSP binding assay; conditions: 10 μM, quadruplicate, cloned target
Sigma 1 = assay: PDSP binding assay; conditions: 10 μM, quadruplicate, cloned target
CRF1 = CRF1 (Homo sapiens, UniProt P34998); assay: CRF1 Ca2+ assay; conditions: presence of EC80 CRF
Sequence of CRF1 (P34998 24-415): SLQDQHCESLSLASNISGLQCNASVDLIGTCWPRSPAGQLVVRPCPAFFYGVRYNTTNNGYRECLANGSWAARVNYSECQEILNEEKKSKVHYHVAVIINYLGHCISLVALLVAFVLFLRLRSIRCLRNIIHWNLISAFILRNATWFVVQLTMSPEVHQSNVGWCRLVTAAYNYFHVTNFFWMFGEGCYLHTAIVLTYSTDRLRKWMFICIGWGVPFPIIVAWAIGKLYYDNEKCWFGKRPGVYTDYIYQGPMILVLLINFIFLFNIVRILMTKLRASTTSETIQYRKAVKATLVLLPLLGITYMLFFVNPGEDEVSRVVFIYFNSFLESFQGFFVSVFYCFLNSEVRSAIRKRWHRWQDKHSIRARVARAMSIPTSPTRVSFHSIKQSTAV

SMILES | Block of CRF potentiation of NMDAR EPSCs [1] | Activity at 5-HT1A (binding assay) (5-HT1A) [%] | Activity at 5-HT1D (binding assay) (5-HT1D) [%] | Activity at 5-HT2C (binding assay) (5-HT2C) [%] | Activity at 5-HT3 (binding assay) (5-HT3) [%] | Activity at 5-HT5A (binding assay) (5-HT5A) [%] | Activity at 5-HT7 (binding assay) (5-HT7) [%] | Activity at D2 (binding assay) (D2) [%] | Activity at D3 (binding assay) (D3) [%] | Activity at D4 (binding assay) (D4) [%] | Activity at MOR (binding assay) (MOR) [%] | Activity at GABAA (binding assay) (GABAA) [%] | Activity at H3 (binding assay) (H3) [%] | Activity at Alpha1A (binding assay) (Alpha1A) [%] | Activity at Alpha1B (binding assay) (Alpha1B) [%] | Activity at Alpha2A (binding assay) (Alpha2A) [%] | Activity at Alpha2B (binding assay) (Alpha2B) [%] | Activity at Alpha2C (binding assay) (Alpha2C) [%] | Activity at Beta1 (binding assay) (Beta1) [%] | Activity at Beta2 (binding assay) (Beta2) [%] | further results
Brc1ccccc1-c1nnc(CSc2nnnn2-c2ccccc2)o1 [MLS-0046818] | sufficient to block the CRF effect | 26 | −5 | 19 | −2 | −1 | −31 | −13 | −11 | −42 | 12 | 15 | −15 | 10 | 19 | 4 | 2 | 8 | 7 | 1 | Activity at M2 (binding assay) (M2): 10%; Activity at M3 (binding assay) (M3): 13%; Activity at Alpha1D (binding assay) (Alpha1D): −10%; Activity at Sigma 1 (binding assay) (Sigma 1): 8%; CRF1 activity (CRF1): inactive
CC(C)Cn1c(SCC(=O)N2CCc3ccccc3C2)nc2cc(Cl)ccc2c1=O [MLS-0219419] | sufficient to block the CRF effect | −9 | −5 | −7 | 2 | 12 | 6 | −5 | −6 | −60 | −4 | 9 | −9 | −15 | −1 | 8 | 0 | −5 | 1 | −13 | Activity at M2 (binding assay) (M2): 23%; Activity at M3 (binding assay) (M3): 19%; Activity at Alpha1D (binding assay) (Alpha1D): −19%; Activity at Sigma 1 (binding assay) (Sigma 1): 7%; CRF1 activity (CRF1): inactive
